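Where inhibition never reached the appropriate level, the endpoint shown equals the highest concentration tested. Otherwise, values were interpolated linearly from a five-concentration, 48-hour dose response in 96-well plates. Here, GI50 denotes the concentration required for 50% inhibition of growth. At the TGI there is no net growth.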
Experiments:
Test in all cases: NCI tumour cell line growth inhibition, 48 h
OVCAR-5 ovarian = system: OVCAR-5 ovarian
CAKI-1 renal = system: CAKI-1 renal
OVCAR-4 ovarian = system: OVCAR-4 ovarian
NCI-H226 lung = system: NCI-H226 lung
MDA-MB-231 breast = system: MDA-MB-231 breast
HL-60(TB) leukemia = system: HL-60(TB) leukemia
SR leukemia = system: SR leukemia
HS 578T breast = system: HS 578T breast
M14 melanoma = system: M14 melanoma
SN12C renal = system: SN12C renal

Compound	GI50 (OVCAR-5 ovarian) [µM]	TGI (OVCAR-5 ovarian) [µM]	GI50 (CAKI-1 renal) [µM]	TGI (CAKI-1 renal) [µM]	GI50 (OVCAR-4 ovarian) [µM]	TGI (OVCAR-4 ovarian) [µM]	GI50 (NCI-H226 lung) [µM]	TGI (NCI-H226 lung) [µM]	GI50 (MDA-MB-231 breast) [µM]	TGI (MDA-MB-231 breast) [µM]	GI50 (HL-60(TB) leukemia) [µM]	TGI (HL-60(TB) leukemia) [µM]	GI50 (SR leukemia) [µM]	TGI (SR leukemia) [µM]	GI50 (HS 578T breast) [µM]	TGI (HS 578T breast) [µM]	GI50 (M14 melanoma) [µM]	TGI (M14 melanoma) [µM]	GI50 (SN12C renal) [µM]	TGI (SN12C renal) [µM]
COc1ccc(/C=C/c2cc(N3CCOCC3)c3cc(F)c(F)cc3n2)cc1OC	2.01	11.9	0.394	3.24	0.253	2.04	1.1	4.82	0.483	4.66	0.435	5.14	0.431	6.78	2.37	28.8	0.762	3.92	1.68	14.1
C#COc1cccc(Nc2ncnc3ncc(NC(=O)CCl)cc23)c1	> 47.4	> 62.5	> 15.2	> 62.5	> 62.5	> 62.5	> 62.5	> 62.5	> 27.3	> 62.5	> 21.2	> 45		> 62.5	> 62.5	> 62.5	50.5	> 62.5		> 62.5
Clc1ccc(-c2nn3ncccc3c2-c2ccnc(Nc3ccccc3)n2)cc1	11.9	> 25	2.5	> 22.2	9.6	> 25	> 13.1	> 25	13.4	> 25	11.3	> 25	7.66	> 25	6.4	> 22	> 14.8	> 25	8.29	> 25
CCCN(CCC)CCCNC(=O)c1cc2c(-c3ccc(OC)c(OC)c3)nn(C)c2s1	50.4	> 100	27.1	> 100	23.5	> 100	> 100	> 100	18.8	41.3	20.7	46.2	11.9	58.9	22.9	> 100	17.2	35	54.9	> 100
N#Cc1cccc(NC(=O)c2oc3ccccc3c2-c2cnn(-c3ccccc3)c2)c1	> 500	> 500	> 500	> 500	193	> 500	> 500	> 500	90	> 500	> 500	> 500	148	> 500	171	> 500	> 500	> 500	> 500	> 500
C#CCNC(=O)CC[C@]1(C)[C@H]2CC[C@@H]3[C@@H]([C@@](C)(O)CCC=C(C)C)CC[C@@]3(C)[C@]2(C)CC[C@H]1C(=C)C	51.9	> 100	4.25	17.7	43.6	> 100	18.3	43.1	22.3	67.5	1.19	15.9	3.05	19.2	50.2	> 100	30.9	> 100	31.8	> 100
C=C1C(=O)O[C@@H]2C[C@@H]1CC[C@@]1(C)O[C@@H]1CC[C@@]1(C)O[C@@H]1CC[C@@]2(C)O	20.5	56.5	22.7	72.8	12.3	34.3	16.9	35.9	13.7	31.6	10.3	32.8	3.12	16.3	21.6	61.2	21.4	42.4	16.1	40.1
CCOC(=O)c1c(C)n2c(=O)cc(C)c3c(OC(C)=O)c(OC(C)=O)cc1c32	11.9	42.2	6.37	> 65.9	3.29	> 33.7	10.1	35.7	4.34	34.4	3.2	12.1	2.78	> 32.2	4.52	> 65.2	3.96	18.2	4.97	28.2
CCOC(=O)C(=O)N=Nc1nc2c(O)c3ccccc3c(O)c2s1		16.1		35.6		3.64		30.2		12.7		> 100		> 100		10.5		4.7		3.46
O=C1/C(=C\c2coc3ccccc3c2=O)c2ccccc2N1c1c(Cl)cccc1Cl	20.9	> 100	2.45	> 100	3.66	> 100	20.7	> 100	3.88	> 100	2.08	87.6	1.44	56.4	9.05	> 100	5.28	97.4	3.35	> 100

— PubChem BioAssay (NCI)
